Laboratory results: US20060281720A1, “5-Androstenediol As An Inhibitor of Gliomas” (priority 2005, published 2006)

How the values were obtained:
rat F98 glioma cells [1] = test: Proliferation of rat F98 glioma cells by 3H-TdR incorporation; assay type: cell-based; conditions: 3 days; for cell growth / proliferation (3H-TdR incorporation): compared to controls; for dose dependency of antiproliferative effect / proliferation: Example 2, FIG. 2; for dose dependency of antiproliferative effect: 500, 50, 5.0 and 0.5 μm; for proliferation: at 500 μm
Method: (§1) αAED, βAED, αAET, and βAET, are commercially available.
(§2) The F98 cells are weakly immunogenic. […] The T9 cell line is tumorgenic and immunogenic.
(§3) During the growth phase, the media was not changed.
(§4) Rat F98 glioma cells and […] glioma cells were grown and cultured as in example 1 above. The cells were cultured in the presence of αAED or βAED in titrated concentrations of 500 μm, 50 μm, 5.0 μm, and 0.5 μm. After 3 days, glioma cell proliferation was measured as described above.
(§5) The cells were cultured in the presence of αAED, βAED, αAET, βAET, or vehicle in titrated concentrations of 400 μm, 200 μm, 100 μm, and 50 μm.

human U87 glioma cells = conditions: Example 1, FIG. 1; 500 μm, 3 days, compared to controls
Method: (§6) αAED, βAED, αAET, and βAET, are commercially available. Unless otherwise indicated, all steroids were dissolved in DMSO:ETHOL (1:1 v/v). Stock solutions were refrigerated and brought to room temperature before use. For testing, stock solutions were diluted in media immediately before use.
(§7) The rat F98 cell line was obtained from the American Type Culture Collection (ATCC No. CRL-2397). These cells are tumorgenic and have biological characteristics that closely resemble those of human glioblastoma. The F98 cells are weakly immunogenic. […] The T9 cell line is tumorgenic and immunogenic. The human U-87 cell line was obtained from American Type Culture Collection (ATCC No. HTB-14). These cells are tumorgenic and are derived from malignant gliomas. The human T98 cell line was obtained from the American Type Culture Collection (ATCC No. CRL-1690). These cells are derived from the brain of a subject diagnosed with glioblastoma multiforme.
(§8) Cells were grown in Complete Media (CM) consisting of Dulbecco's Modified Eagle Medium. Cells were initially seeded at a density of 1×10^4 cells per 0.2 ml in 96 well plates and grown at 37° C. During the growth phase, the media was not changed. Proliferation was measured by tritium uptake (as a measure of DNA synthesis). One microcurie (1 μC) was added to the cells and incubated overnight. The 96 well plate was then refrigerated and counted in a topcount cell plate harvester.
(§9) Rat F98 and T9 glioma cells and […] and U87 glioma cells were cultured in 96 well plates at a density of approximately 1×10^4 cells per well. Cells were treated with 500 μm of αAED or βAED or vehicle and cultured for 3 days. The cultures were pulsed with 3H-TdR for the last 15 hours.

rat T9 glioma cells = conditions: Example 1, FIG. 1; 500 μm, 3 days, compared to controls
Method: as §6, §7, §8, §9

human T98 glioma cells = test: Proliferation of human T98 glioma cells by 3H-TdR incorporation; assay type: cell-based; conditions: 3 days; for cell growth / proliferation (3H-TdR incorporation): compared to controls; for dose dependency of antiproliferative effect / proliferation: Example 2, FIG. 2; for dose dependency of antiproliferative effect: 500, 50, 5.0 and 0.5 μm; for proliferation: at 500 μm
Method: as §1, §2, §3, §4, §5

rat F98 glioma cells [2] = test: Morphology of rat F98 glioma cells viewed in situ by microscope; assay type: cell-based; conditions: Example 3, FIG. 3, 24 hours; for morphological changes compared to vehicle treated cells: 20× magnification
Method: Cells were cultured as described in example 1 for 24 hours. Cells were cultured with […] of αAED, βAED, βAET, and vehicle. After culture, the cells were viewed in situ under 20× magnification using a reverse image microscope.

Raw 264.7 = conditions: Huynh and Loria, J Leukoc Biol 1997; cited from earlier work
murine P388D1 = conditions: Huynh and Loria, J Leukoc Biol 1997; cited from earlier work
[3] = system: human promyelocytic HL60 cells; conditions: Huynh and Loria, J Leukoc Biol 1997; cited from earlier work
[4] = Example 5, FIG. 5, 400, 200, 100 and 50 μM
[5] = Example 4, FIG. 4, 400, 200, 100 and 50 μM

Compound | cell growth / proliferation (3H-TdR incorporation) (rat F98 glioma cells [1]; Example 1, FIG. 1, 500 μm) | dose dependency of antiproliferative effect (rat F98 glioma cells [1]) | proliferation (rat F98 glioma cells [1]) | cell growth / proliferation (3H-TdR incorporation) (rat F98 glioma cells [1]; [4]) | cell growth / proliferation (3H-TdR incorporation) (human U87 glioma cells) | cell growth / proliferation (3H-TdR incorporation) (rat T9 glioma cells) | cell growth / proliferation (3H-TdR incorporation) (human T98 glioma cells; Example 1, FIG. 1, 500 μm) | dose dependency of antiproliferative effect (human T98 glioma cells) | proliferation (human T98 glioma cells) | cell growth / proliferation (3H-TdR incorporation) (human T98 glioma cells; [5]) | morphology of apoptosis (cell shrinkage, rounding, vacuolization, partial detachment, lobulated appearance) (rat F98 glioma cells [2]) | morphological changes compared to vehicle treated cells (rat F98 glioma cells [2]) | proliferation and apoptosis (Raw 264.7) | proliferation and apoptosis (murine P388D1) | proliferation and apoptosis [3]
5-androstene-3β-17β-diol [βAED] | inhibited cell growth | dose dependent | inhibited the proliferation | inhibited cell growth | inhibited cell growth | inhibited cell growth | inhibited cell growth | dose dependent | inhibited the proliferation | inhibited cell growth | display morphology of apoptasis | significant morphological changes |  |  | 
5-androstene-3β-17α-diol [αAED] | inhibited cell growth | dose dependent | inhibited the proliferation | significantly inhibited cell growth | inhibited cell growth | inhibited cell growth | inhibited cell growth | dose dependent | inhibited the proliferation | significantly inhibited cell growth | display morphology of apoptasis | most drastic morphological changes | inhibits the proliferation and induces apoptosis | inhibits the proliferation and induces apoptosis | inhibits the proliferation and induces apoptosis
C[C@]12CC[C@H]3[C@@H]([C@@H](O)C=C4C[C@@H](O)CC[C@@]43C)[C@@H]1CC[C@@H]2O [βAET, 5-androstene-3β-7β-17β-triol] |  |  |  | displayed significant effects on the proliferation |  |  |  |  |  | displayed significant effects on the proliferation | display morphology of apoptasis | significant morphological changes |  |  | 
C[C@]12CC[C@H]3[C@@H]([C@H](O)C=C4C[C@@H](O)CC[C@@]43C)[C@@H]1CC[C@@H]2O [αAET, 5-androstene-3β-7α-17β-triol] |  |  |  | displayed significant effects on the proliferation |  |  |  |  |  | displayed significant effects on the proliferation |  |  |  |  | 
